The results in this text go back to patent US20110105389A1 (priority 2009, published 2011).

The target of series [1] is T1, GHS-R1a receptor (HEK293 cells expressing GHS-R1a receptor) (Homo sapiens, UniProt Q92847).
T1 construct: host or cells: HEK293
The experiment in a line: Fluorescence functional assay (ghrelin receptor), Method B2, agonist and antagonist mode. It is filed as cell-based. The conditions noted are these: functional activity as an antagonist at the ghrelin receptor, Methods B2 and B3. In outline: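 Calcium flux read by ImageTrak epifluorescence in HEK293 cells stably expressing GHS-R1a, loaded 1 h at 37 °C with Calcium-3 dye; buffer HBSS/20 mM Hepes, pH 7.4, with probenecid and BSA. Agonists injected after 10 s baseline, read 50 s more; antagonists 3 min. Sigmoidal fits gave EC50 or IC50.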

Series [2] concerns rat stomach fundus strips. The experiment in a line: Ex-vivo potency evaluation on the rat stomach fundus (inhibition of ghrelin-induced contractility), Method B10. The conditions noted are these: EFS. On the procedure: B10. Ex-vivo Potency Evaluation on the Rat Stomach Fundus
Fundus strips (approximately 0.4×1 cm) were cut from the stomach of adult male Wistar rats parallel to the circular muscle fibers. They were placed between two platinum ring electrodes, 1 cm apart (Radnoti, ADlnstruments, USA) in 10 ml tissue baths containing Krebs solution bubbled with 5% CO2 in O2 and maintained at 37° C. Tissues were suspended under 1.5 g resting tension. Changes of tension were measured isometrically with force transducers and recorded with a PowerLab 8/30 data acquisition system (ADlnstruments, USA). Tissues were allowed to equilibrate for 60 min during which time bath solutions were changed every 15 min.
EFS was achieved by applying 0.5 ms pulses, 5 Hz frequency, at a maximally effective voltage of 70 V. EFS was applied for 30 sec at 3 min intervals for a 30 min initial period. This initial period was separated by a […] interval with wash out of the bath solution. Then, a second period of stimulation was started. […] Responses to the agents were measured and expressed as % of the mean of three or four pre-drug responses to EFS. All compounds were dissolved at 1 mM in distilled water or MeOH, as stock solutions.
IC50 values for the inhibition of ghrelin-induced contractility by representative compounds of the invention are presented in Table 7.

Series [3] addresses T2, human ghrelin receptor (GRLN, growth hormone secretagogue receptor, hGHS-R1a) (Homo sapiens, UniProt Q92847).
T2 construct: purchased PerkinElmer BioSignal #RBHGHSM, lot#1887; host or cells: HEK-293 cells, stably transfected (membranes)
The experiment in a line: Competitive radioligand binding assay (ghrelin receptor), Method B1. Conditions: Ghrelin receptor binding activity, Method B1. A digest of the protocol: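 Membranes incubated with compound 30 min at rt in 25 mM Hepes pH 7.4, 1 mM CaCl2, 5 mM MgCl2, 2.5 mM EDTA, 0.4% BSA, max 0.1% DMSO; filtered on PEI-soaked GF/C, washed with cold Tris, scintillation counted. Curves fitted by variable-slope non-linear regression.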

Series [4] in a line: Metabolic stability in human liver microsomes, Method B8. In kind it is in vitro ADME. The conditions noted are these: human liver microsomes 0.8 mg/mL, 5 μM compound, 37° C. An excerpt:
B8. Metabolic Stability in Human Liver Microsomes
The liver is the primary site for phase I (oxidation) and phase II (glucuronidation) enzymatic activity responsible for xenobiotic metabolism. Human liver microsomes are used as in vitro screen of metabolic activity for candidate drugs. Similar studies can be run with microsomes from other species, such as those used for in vivo studies, to determine any significant species differences in the stability profile. The aim of this study was to measure the broad-spectrum metabolic stability of representative compounds of the invention. The key aspects of the experimental design are summarized below: • Human liver microsomes (mixed pool of 15 male and female donors) were purchased from In Vitro Technologies (Baltimore, Md.). • Microsomes characterized for phase I (Cyp2A6, 2D6, 2E1, 1A2, 2C19, 3A4, 4A) and phase II (glucuronidation) enzymatic activity. • Assays are performed using a final concentration of 0.8 mg/mL of microsomes in 100 mM potassium phosphate buffer (1.5 mM NADPH, 8 mM MgCl2, pH 7.4, 37° C.). • Compounds are tested in duplicate samples at a single concentration of 5 μM (0.05% DMSO). • Test articles are incubated with the microsomes at 37° C.
(In general: Liver microsomes are a subcellular fraction often used to study metabolism.)

Series [5] deals with T3, ghrelin receptor (HEK-GHSR1 stable cells) (Homo sapiens, UniProt Q92847).
T3 construct: expressed in transfected cells
Description: Ghrelin receptor inverse agonist assay (HTRF IP-one), Method B4. In kind it is cell-based. Conditions: inverse agonist at the ghrelin receptor, Method B4. In outline: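 HEK cells stably expressing GHSR1, seeded at 100 000 cells/well overnight, exposed to compound for 30 min at 37° C. Cells then lysed and IP1 accumulation measured by HTRF (d2 plus anti-IP1 cryptate, 1 h at room temp). Wells lacking d2 served as negative control.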
(Time-resolved FRET reads energy transfer from a long-lived donor to a nearby acceptor.)

The nature of series [6]: Plasma protein binding (equilibrium dialysis), Method B5. In kind it is in vitro ADME. The conditions noted are these: 60 min at 37° C., typically 10 μM. An excerpt: B5. Plasma Protein Binding
The pharmacokinetic and pharmacodynamic properties of drugs are largely a function of the reversible binding of drugs to plasma or serum proteins such as albumin and α1-acid glycoprotein. In general, only unbound drug is available for diffusion or transport across cell membranes, and for interaction at the pharmacological target. On the other hand, drugs with low plasma protein binding generally have large volumes of distribution and rapid clearance since only unbound drug is available for glomerular filtration and, in some cases, hepatic clearance. Thus, the extent of plasma protein binding can influence efficacy, distribution and elimination. The ideal range for plasma protein binding is in the range of 87-98% for most drug products.
Protein binding studies were performed using human plasma. Briefly, 96-well microplates were used to incubate various concentrations of the test article for 60 min at 37° C. A concentration of 10 μM was a typical selection to be employed in this study. Bound and unbound fractions are separated by equilibrium dialysis, where the concentration remaining in the unbound fraction is quantified by LC-MS or LC-MS-MS analysis. […].
(In general: In equilibrium dialysis free small molecules cross a membrane that holds back macromolecules.)

Series [7] has as its target CYP3A4 (Homo sapiens, UniProt P08684). Description: Cytochrome P450 inhibition, Method B6 (two substrates). Conditions: read-out: IC50 CYP 3A4; Table 4b; midazolam used as substrate.
Series [8] can be described thus: Pharmacokinetic analysis (intravenous and oral), Method B9. It is filed as in vivo. Conditions: Table 10b; 2 mg/mL intravenous typically employed. From the text:
B9. Pharmacokinetic Analysis
The pharmacokinetic (PK) behavior of compounds of the invention and their pharmaceutical compositions can be ascertained by methods well known to those skilled in the art and can be used to investigate the pharmacokinetic parameters (elimination half-life, total plasma clearance, etc.) for intravenous, subcutaneous and oral administration of these substances. (Wilkinson, G. R. “Pharmacokinetics: The Dynamics of Drug Absorption, Distribution, and Elimination” in Goodman & Gilman's The Pharmacological Basis of Therapeutics, Tenth Edition, Hardman, J. G.; Limbird, L. E., Eds., McGraw Hill, Columbus, Ohio, 2001, Chapter 1.) See also U.S. Pat. Nos. 7,476,653; 7,491,695; Intl. Pat. Appl. WO 2008/033328 and U.S. Patent Appl. Publ. 2008/0194672. As an example, compound 1505 has the PK profile below.
The determination of PK parameters for additional representative compounds of the invention is presented in the Examples.
A detailed analysis of the pharmacokinetic profile of representative compounds of the invention was conducted using the procedures outlined in Method B9.
A dose level of 2 mg/mL for intravenous administration and 8 mg/mL for oral administration were typically employed.

T3 sequence (Q92847 whole entry): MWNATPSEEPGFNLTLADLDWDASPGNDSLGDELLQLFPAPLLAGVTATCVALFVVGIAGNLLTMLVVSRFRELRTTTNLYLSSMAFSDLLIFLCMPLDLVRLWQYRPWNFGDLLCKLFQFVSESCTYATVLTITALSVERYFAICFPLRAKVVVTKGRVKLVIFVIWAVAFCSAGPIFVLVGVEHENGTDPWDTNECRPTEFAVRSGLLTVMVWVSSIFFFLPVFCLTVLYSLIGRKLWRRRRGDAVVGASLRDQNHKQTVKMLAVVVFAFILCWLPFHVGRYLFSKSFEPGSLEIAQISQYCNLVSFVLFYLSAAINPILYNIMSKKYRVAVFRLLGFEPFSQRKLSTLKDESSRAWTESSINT
T2 sequence (Q92847 whole entry): as above
T1 sequence (Q92847 whole entry): as above
CYP3A4, sequence (P08684 whole entry): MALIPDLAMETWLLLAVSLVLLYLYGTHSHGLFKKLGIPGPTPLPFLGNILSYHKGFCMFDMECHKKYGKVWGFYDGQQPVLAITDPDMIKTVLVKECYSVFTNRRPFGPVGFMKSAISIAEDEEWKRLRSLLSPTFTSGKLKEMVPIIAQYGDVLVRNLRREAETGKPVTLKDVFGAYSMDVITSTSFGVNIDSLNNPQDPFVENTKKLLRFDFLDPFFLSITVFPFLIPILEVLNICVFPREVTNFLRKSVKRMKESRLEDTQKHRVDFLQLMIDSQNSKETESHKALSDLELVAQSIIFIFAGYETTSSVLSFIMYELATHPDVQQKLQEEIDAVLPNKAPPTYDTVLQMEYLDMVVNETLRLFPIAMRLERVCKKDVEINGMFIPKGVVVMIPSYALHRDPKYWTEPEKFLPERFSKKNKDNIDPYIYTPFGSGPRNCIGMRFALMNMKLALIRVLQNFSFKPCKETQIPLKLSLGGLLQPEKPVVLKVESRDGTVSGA

As for `CCC(C)[C@@H]1NCCOc2ccccc2/C=C/[C@@H](C)NC(=O)[C@@H](Cc2ccccc2)NC(=O)[C@H](C(C)O)N(C)C1=O` (stereo partly drawn) [Compound 1315], the “Antagonist Activity” value in series [1] is listed as “C (C = 10-100 nM)”. Moreover, inhibition in series [2] was half-maximal at 75 nM (IC50). Further, in series [3], the half-inhibitory concentration (IC50) (in general, the midpoint of a concentration-inhibition curve) lay in the range of 1 to 10 nM and the inhibition constant (Ki) – broadly, a dissociation constant, usually derived from enzyme kinetics or from competition with a known ligand – lay within 1 to 10 nM.
`CC(C)[C@@H]1NCCOc2ccccc2CC[C@@H](C)NC(=O)[C@@H](Cc2cccc(F)c2)NC(=O)[C@H](C(C)O)N(C)C1=O` (stereo partly drawn) [Compound 1364]: the “Antagonist Activity” value in series [1] is “B (B = 1-10 nM)”. For the same compound, the IC50 in series [2] came out at 200 nM.
As for `CC(C)[C@@H]1NCCOc2cc(F)ccc2CC[C@@H](C)NC(=O)[C@@H](Cc2ccccc2)NC(=O)[C@H](C(C)O)N(C)C1=O` (stereo partly drawn) [Compound 1391], in series [1], the “Antagonist Activity” value is “A (A <1 nM)”. The “HLM, metabolic stability in human liver microsomes” value (from here on “HLM, metabolic stability”) in series [4] was determined as 16.6 μL/min/mg protein. For the same compound, 65 nM corresponded to half-maximal inhibition in series [2] (IC50).
The matching figures for `CC(C)[C@@H]1NCCOc2cc(F)ccc2CC[C@@H](C)NC(=O)[C@@H](Cc2cccc(F)c2)NC(=O)[C@H](C(C)O)N(C)C1=O` (stereo partly drawn) [Compound 1392]: “A (A <1 nM)”, 23.6 μL/min/mg protein and 4 nM.
The matching figures for `CC(C)[C@@H]1NCCOc2ccccc2CC[C@@H](C)NC(=O)[C@@H](Cc2cccc(Cl)c2)NC(=O)[C@H](C(C)O)N(C)C1=O` (stereo partly drawn) [Compound 1400]: “A (A <1 nM)”, 54.2 μL/min/mg protein and 360 nM.
With `CCC(C)C1NCCOc2ccccc2CCCNC(=O)C(Cc2ccc(Cl)cc2)NC(=O)C(C(C)O)N(C)C1=O` (stereo not drawn) [Compound 1699], the “Antagonist Activity” value in series [1] was “C (C = 10-100 nM)”. Besides, the “HLM, metabolic stability” value in series [4] came to 85.2 μL/min/mg protein. Further, the IC50 in series [5] was 100 to 500 nM; in series [3], 10 to 100 nM.
In the case of `CC(C)[C@@H]1NCCOc2ccccc2C#C[C@@H](C)NC(=O)[C@@H](Cc2ccc(F)cc2)NC(=O)[C@H](C(C)O)N(C)C1=O` (stereo partly drawn) [Compound 1711], in series [6], the “Binding (%), Human Plasma Protein Binding” value came to 97.4%. Further, the half-inhibitory concentration (IC50) in series [5] lay within 10 to 50 nM; in series [3], 1 to 10 nM.
In the case of `CCC(C)C1NCCOc2ccccc2C=CCNC(=O)C(Cc2ccc(Cl)cc2)NC(=O)C(C(C)O)N(C)C1=O` (stereo not drawn) [Compound 1730], the “HLM, metabolic stability” value in series [4] stood at 61.9 μL/min/mg protein. For the same compound, the values for the IC50 in series [7], in series [5] and in series [3] were 1600 nM, 100 to 500 nM and 1 to 10 nM, respectively.
On to `CCC(C)C1NCCOc2cc(F)ccc2C=CCNC(=O)C(Cc2ccc(Cl)cc2)NC(=O)C(C(C)O)N(C)C1=O` (stereo not drawn) [Compound 1739], for which, in series [1], the “Antagonist Activity” value is recorded as “B (B = 1-10 nM)”. In addition, in series [4], the “HLM, metabolic stability” value was 26.1 μL/min/mg protein. The IC50 in series [5] fell in the range of 100 to 500 nM; in series [3], 1 to 10 nM.
The matching figures for `CCC(C)C1NCCOc2ccc(F)cc2C=CCNC(=O)C(Cc2ccc(Cl)cc2)NC(=O)C(C(C)O)N(C)C1=O` (stereo not drawn) [Compound 1740]: “C (C = 10-100 nM)”, 28.3 μL/min/mg protein, 100 to 500 nM and 1 to 10 nM.
For the compound `CC(O)[C@H]1C(=O)N[C@H](Cc2ccc(Cl)cc2)C(=O)N[C@H](C)CCc2ccccc2OCCN[C@@H](C(C)(C)C)C(=O)N1C` (stereo partly drawn) [Compound 1742], the “HLM, metabolic stability” value in series [4] is reported as 157.4 μL/min/mg protein. In addition, the results for the IC50 in series [5] and in series [3] were 10 to 50 nM and 10 to 100 nM, respectively.
The matching figures for `CC(O)[C@H]1C(=O)N[C@H](Cc2c[nH]c3ccccc23)C(=O)N[C@H](C)CCc2ccccc2OCCN[C@@H](C2CC2)C(=O)N1C` (stereo partly drawn) [Compound 1745]: 117.0 μL/min/mg protein, 100 to 500 nM and 10 to 100 nM.
The matching figures for `CC(C)[C@@H]1NCCOc2cc(F)ccc2CC[C@@H](C)NC(=O)[C@@H](Cc2ccc(Cl)cc2)NC(=O)[C@H](C(C)O)N(C)C1=O` (stereo partly drawn) [Compound 1758]: 90.4 μL/min/mg protein, 10 to 50 nM and 1 to 10 nM.
In the case of `CC[C@@H]1C#Cc2ccc(F)cc2OCCN[C@@H](C(C)C)C(=O)N(C)[C@@H](C(C)O)C(=O)N[C@H](Cc2ccccc2)C(=O)N1` (stereo partly drawn) [Compound 1759], in series [8], the “Cl” value is reported as 14 ± 2 mL/min/kg and the “t1/2” value was found to be 1.98 ± 1.68 h. Besides, the “HLM, metabolic stability” value in series [4] was 40.6 μL/min/mg protein. Also, in series [5], the IC50 is 50 to 100 nM. Further, in series [3], the 50% inhibitory concentration (IC50) was 1 to 10 nM.
With `CC[C@@H]1C#Cc2ccc(F)cc2OCCN[C@@H](C(C)C)C(=O)N(C)[C@@H](C(C)O)C(=O)N[C@H](Cc2cccc(F)c2)C(=O)N1` (stereo partly drawn) [Compound 1760], the “HLM, metabolic stability” value in series [4] is given as 34.8 μL/min/mg protein. In addition, the IC50 lay within 50 to 100 nM in series [5] and 1 to 10 nM in series [3].
The matching figures for `CCC(C)C1NCCOc2ccccc2C=CCNC(=O)C(Cc2ccc(Cl)cc2Cl)NC(=O)C(C(C)O)N(C)C1=O` (stereo not drawn) [Compound 1761]: 77.0 μL/min/mg protein, 50 to 100 nM and 10 to 100 nM.
The matching figures for `CC(O)[C@H]1C(=O)N[C@H](Cc2c[nH]c3ccccc23)C(=O)N[C@H](C)CCc2ccccc2OCCN[C@@H](C(C)(C)C)C(=O)N1C` (stereo partly drawn) [Compound 1762]: 73.4 μL/min/mg protein, 100 to 500 nM and 10 to 100 nM.
